Read-outs that look alike come from different tables or passages of the source.
Columns and labels:
HepG2 = test: MTT cytotoxicity assay (Example 30); format: cell-based; details: Homo sapiens
Source text: Cytotoxicity of the compounds is the major property determining their anticancer effect in vivo. One of the parameters used, as the basis for cytotoxicity assays, is the metabolic activity of viable cells. For example, a microtiter assay, which uses (3-(4,5-Dimethylthiazol-2-yl)-2,5-diphenyltetrazolium bromide (MTT), is widely used to quantitate cell proliferation and cytotoxicity. For instance, this assay is used in drug screening programs and in chemosensitivity testing. Because only metabolically active living cells reduce MTT to correspond purple formazan dye, these assays detect viable cells exclusively. The quantity of reduced MTT corresponds to the number of vital cells in the culture.
(§1) We have been using the following cell lines: HUH-7 and PLC/PRF/5 cell lines were maintained in DMEM supplemented with 10% fetal bovine serum, penicillin (100 U/ml) and streptomycin (100 μg/ml). Unique HCC-1.2 (3p) and HCC-1.1 (3sp) cell lines (Zilj et al., 2009, Future Oncol, 5(8):1169-79) and Hep3B cells were cultivated in RPMI supplemented with 10% fetal bovine serum, penicillin (100 U/ml) and streptomycin (100 μg/ml). HepG2 cell line was maintained in EMEM supplemented with 10% fetal bovine serum, sodium pyruvate (0.11 g/1), penicillin (100 U/ml) and streptomycin (100 μg/ml). All cell lines were cultivated at 37° C. in 5% CO2. For cytotoxicity assays, 3000 cells (10000 cells in case of HepG2 cell line) were seeded into each well of 96 well plate and the next day tested compounds were added at various concentrations in triplicates. Three days after drug addition MTT stock solution (5 mg/ml) was added into each well and incubated for 4 h. After this incubation period, produced formazan was dissolved by DMSO and final absorbance was measured at 570 nm with Synergy H4 Hybrid Multi-Mode Microplate Reader.

HCC-1.2 (3p) = test: MTT cytotoxicity assay (Example 30); format: cell-based; details: Homo sapiens
Experimental: (§2) Cytotoxicity of the compounds is the major property determining their anticancer effect in vivo. One of the parameters used, as the basis for cytotoxicity assays, is the metabolic activity of viable cells.
as §1, with “Unique HCC-1.2 (3p) and HCC-1.1 (3sp) cell lines (Zilj et al., 2009, Future Oncol, 5(8):1169-79) and Hep3B cells were cultivated in RPMI supplemented with 10% fetal bovine serum, penicillin (100 U/ml) and streptomycin (100 μg/ml).” left out

HCC-1.1 (3sp) = test: MTT cytotoxicity assay (Example 30); format: cell-based; details: Homo sapiens
Experimental: as §2
as §1, with “Unique HCC-1.2 (3p) and HCC-1.1 (3sp) cell lines (Zilj et al., 2009, Future Oncol, 5(8):1169-79) and Hep3B cells were cultivated in RPMI supplemented with 10% fetal bovine serum, penicillin (100 U/ml) and streptomycin (100 μg/ml).” left out

PLC/PRF/5 = test: MTT cytotoxicity assay (Example 30); format: cell-based; details: Homo sapiens
Experimental: as §2
as §1, with “Unique HCC-1.2 (3p) and HCC-1.1 (3sp) cell lines (Zilj et al., 2009, Future Oncol, 5(8):1169-79) and Hep3B cells were cultivated in RPMI supplemented with 10% fetal bovine serum, penicillin (100 U/ml) and streptomycin (100 μg/ml).” left out

HUH-7 = test: MTT cytotoxicity assay (Example 30); format: cell-based; details: Homo sapiens
Experimental: as §2
as §1, with “Unique HCC-1.2 (3p) and HCC-1.1 (3sp) cell lines (Zilj et al., 2009, Future Oncol, 5(8):1169-79) and Hep3B cells were cultivated in RPMI supplemented with 10% fetal bovine serum, penicillin (100 U/ml) and streptomycin (100 μg/ml).” left out

Hep3B = test: MTT cytotoxicity assay (Example 30); format: cell-based, human; details: Homo sapiens, Hep3B
Experimental: as §2
as §1, with “Unique HCC-1.2 (3p) and HCC-1.1 (3sp) cell lines (Zilj et al., 2009, Future Oncol, 5(8):1169-79) and Hep3B cells were cultivated in RPMI supplemented with 10% fetal bovine serum, penicillin (100 U/ml) and streptomycin (100 μg/ml).” left out

[1] = test system: human umbilical vein endothelial cells (HUVEC); test: HUVEC proliferation, Calcein AM; format: cell-based; details: Homo sapiens, HUVEC, read-out: Inhibitory concentration for HUVEC cells - IC50
Experimental: Novel 2-substituted-6-biarylmethylamino-9-cyclopentyl-9H-purine derivatives were tested for their potential anti-angiogenic properties; we analyzed its influence on the proliferation (Tab. 9), migration and tube formation of human umbilical vein endothelial cells (HUVEC). Confluent HUVECs were seeded in 96-well microtiter plates to detect their proliferation for 24 or 72 h using Calcein AM solution (Invitrogen) and a Fluoroskan Ascent microplate reader (Labsystems) as described previously (Krystof et al., 2011, Eur J Med Chem. 2011 September; 46(9):4289-94).

[2] = HepG2, Table 3, read-out: Inhibitory concentration IC50, HepG2 (reference molecules)
[3] = HCC-1.2, Table 3, read-out: Inhibitory concentration IC50, AKH3p (reference molecules)
[4] = Table 3, read-out: Inhibitory concentration IC50, AKH3sp (reference molecules)
[5] = PLC-PRF-5, Table 3, read-out: Inhibitory concentration IC50, PLC/PRF/5 (reference molecules)
[6] = Huh-7, Table 3, read-out: Inhibitory concentration IC50, HUH-7 (reference molecules)
[7] = Table 3, read-out: Inhibitory concentration IC50, Hep3B (reference molecules)

| melting point | SMILES | IC50 (HepG2; HepG2, 72 h, MTT, three days after drug addition, read-out: Inhibitory concentration IC50, HepG2) | IC50 (HCC-1.2 (3p); HCC-1.2, 72 h, MTT, three days after drug addition, read-out: Inhibitory concentration IC50, 3p) | IC50 (HCC-1.1 (3sp); 72 h, MTT, three days after drug addition, read-out: Inhibitory concentration IC50, 3sp) | IC50 (PLC/PRF/5; PLC-PRF-5, 72 h, MTT, three days after drug addition, read-out: Inhibitory concentration IC50, PLC/PRF/5) | IC50 (HUH-7; Huh-7, 72 h, MTT, three days after drug addition, read-out: Inhibitory concentration IC50, HUH-7) | IC50 (Hep3B; 72 h, MTT, three days after drug addition, read-out: Inhibitory concentration IC50, Hep3B) | IC50 (HepG2; [2]) | IC50 (HCC-1.2 (3p); [3]) | IC50 (HCC-1.1 (3sp); [4]) | IC50 (PLC/PRF/5; [5]) | IC50 (HUH-7; [6]) | IC50 ([1]; 24 h) | IC50 ([1]; 72 h) | IC50 (Hep3B; [7]) |
| --- | --- | --- | --- | --- | --- | --- | --- | --- | --- | --- | --- | --- | --- | --- | --- |
| 114 to 116 °C | NC1CCC(Nc2nc(NCc3ccc(Br)nc3)c3ncn(C4CCCC4)c3n2)CC1 (centres unmarked) [BP110, N^2-(4-amino-cyclohexyl)-N^6-(6-bromo-pyridin-3-ylmethyl)-9-cyclopentyl-9H-purine-2,6-diamine] | > 1000 nM | 334 nM | 515 nM | 400 nM | 513 nM | 488 nM | – | – | – | – | – | – | – | – |
| – | COc1cccc2c1C(=O)c1c(O)c3c(c(O)c1C2=O)C[C@@](O)(C(=O)CO)C[C@@H]3O[C@H]1C[C@H](N)[C@H](O)[C@H](C)O1 [doxorubicin, reference compound] | – | – | – | – | – | – | 1380 nM | 540 nM | 270 nM | 670 nM | 1250 nM | > 6600 nM | > 6600 nM | 460 nM |
| – | CNC(=O)c1cc(Oc2ccc(NC(=O)Nc3ccc(Cl)c(C(F)(F)F)c3)cc2)ccn1 [sorafenib, reference compound] | – | – | – | – | – | – | 5850 nM | 4420 nM | 6390 nM | 4060 nM | 2860 nM | > 50000 nM | > 10000 nM | 3740 nM |

Reference: patent publication US20150368248A1, “2-SUBSTITUTED-6-BIARYLMETHYLAMINO-9-CYCLOPENTYL-9H-PURINE DERIVATIVES, USE THEREOF AS MEDICAMENTS, AND PHARMACEUTICAL COMPOSITIONS” (UNIVERZITA PALACKEHO V OLOMOUCI, priority 2013, published 2015)
